In brackets after ≈: the same amount, converted by molar mass.
What was measured:
[1] = tested on: vancomycin-resistant enterococci; assay: broth micro-dilution, mean geometric MIC; assay type: cell-based, Enterococcus faecium and Enterococcus faecalis; conditions: enterococci, 24-hour incubation
[2] = tested on: Staphylococcus aureus S13E; assay type: cell-based
Experimental: (§1) The MIC's were determined using a standard broth micro-dilution assay.

[3] = tested on: Staphylococcus aureus SA1199A; assay: broth micro-dilution MIC; assay type: cell-based
Experimental: as §1

[4] = tested on: Staphylococcus aureus 446; assay: broth micro-dilution MIC; assay type: cell-based
Experimental: as §1

[5] = tested on: Entercoccus faecium 180-1; assay: broth micro-dilution MIC; assay type: cell-based
Experimental: as §1

[6] = tested on: Staphylococcus aureus X400; assay: broth micro-dilution MIC; assay type: cell-based
Experimental: as §1

Entercoccus faecium 276 = assay: broth micro-dilution MIC; assay type: cell-based
Experimental: as §1

[7] = tested on: Streptococcus pyogenes C203; assay: broth micro-dilution MIC; assay type: cell-based
Experimental: as §1

[8] = tested on: Staphylococcus aureus 489; assay: broth micro-dilution MIC; assay type: cell-based
Experimental: as §1

[9] = tested on: Staphylococcus aureus 447; assay: broth micro-dilution MIC; assay type: cell-based
Experimental: as §1

[10] = tested on: Streptococcus pneumoniae P1; assay: broth micro-dilution MIC; assay type: cell-based
Experimental: (§2) The formula I compounds have in vitro and in vivo activity against Gram-positive pathogenic bacteria. The MIC's were determined using a standard broth micro-dilution assay.

[11] = tested on: Haemophilus influenzae RD; assay: broth micro-dilution MIC; assay type: cell-based; conditions: Haemophilus influenzae RD
Experimental: as §2

[12] = tested on: Staphylococcus haemolyticus 415; assay: broth micro-dilution MIC; assay type: cell-based
Experimental: as §2

[13] = tested on: Staphylococcus haemolyticus 105; assay: broth micro-dilution MIC; assay type: cell-based
Experimental: as §2

Entercoccus faecium 180 = assay: broth micro-dilution MIC; assay type: cell-based; conditions: Entercoccus faecium 180
Experimental: as §2

[14] = tested on: Staphylococcus epidermidis 270; assay: broth micro-dilution MIC; assay type: cell-based
Experimental: as §2

[15] = tested on: vancomycin-susceptible enterococci; assay: broth micro-dilution, mean geometric MIC; assay type: cell-based, Enterococcus faecium and Enterococcus faecalis; conditions: enterococci, 24-hour incubation
[16] = tested on: Staphylococcus aureus SA1199B; assay type: cell-based
Experimental: as §1

[17] = tested on: Staphylococcus aureus SA1199; assay: broth micro-dilution MIC; assay type: cell-based
Experimental: as §1

[18] = tested on: Enterococcus gallinarum 245; assay: broth micro-dilution MIC; assay type: cell-based; conditions: Enterococcus gallinarum 245
Experimental: as §2

Entercoccus faecium 2041 = assay: broth micro-dilution MIC; assay type: cell-based; conditions: Entercoccus faecium 2041
Experimental: as §2

[19] = tested on: Staphylococcus aureus X778; assay: broth micro-dilution MIC; assay type: cell-based
Experimental: as §1

SMILES	mean geometric MIC, Vancomycin Resistant Strains [1]	MIC [2]	MIC [3]	MIC [4]	MIC [5]	MIC (Entercoccus faecium 276)	MIC [7]	MIC [9]	MIC [10]	MIC [11]	MIC [12]	MIC [13]	MIC (Entercoccus faecium 180)	MIC [14]	mean geometric MIC, Vancomycin Sensitive Strains [15]	MIC [16]	MIC [17]	MIC [18]	MIC (Entercoccus faecium 2041)	MIC [19]	other results
CNC(CC(C)C)C(=O)NC1C(=O)NC(CC(N)=O)C(=O)NC2C(=O)NC3C(=O)NC(C(=O)NC(C(=O)O)c4cc(O)cc(O)c4-c4cc3ccc4O)C(OC3CC(C)(N)C(O)C(C)O3)c3ccc(c(Cl)c3)Oc3cc2cc(c3OC2OC(CO)C(O)C(O)C2OC2CC(C)(NCc3c(OC)ccc4ccccc34)C(O)C(C)O2)Oc2ccc(cc2Cl)C1O (stereo not drawn) [Compound 9]	11 mg/L	0.5 mg/L (≈ 0.284 µM)	≤ 0.06 mg/L	2 mg/L (≈ 1.13 µM)	≤ 0.06 mg/L	0.26 mg/L (≈ 0.148 µM)	≤ 0.06 mg/L	4 mg/L (≈ 2.27 µM)	≤ 0.06 mg/L	≤ 0.06 mg/L	4 mg/L (≈ 2.27 µM)	4 mg/L (≈ 2.27 µM)	1 mg/L (≈ 0.567 µM)	16 mg/L (≈ 9.08 µM)	0.38 mg/L						MIC [6]: 0.5 mg/L (≈ 0.284 µM); MIC [8]: 0.5 mg/L (≈ 0.284 µM)
CNC(CC(C)C)C(=O)NC1C(=O)NC(CC(N)=O)C(=O)NC2C(=O)NC3C(=O)NC(C(=O)NC(C(=O)O)c4cc(O)cc(O)c4-c4cc3ccc4O)C(OC3CC(C)(N)C(O)C(C)O3)c3ccc(c(Cl)c3)Oc3cc2cc(c3OC2OC(CO)C(O)C(O)C2OC2CC(C)(NCc3ccc(OC(F)F)cc3)C(O)C(C)O2)Oc2ccc(cc2Cl)C1O (stereo not drawn) [Compound 72]	4.7 mg/L	≤ 0.06 mg/L	≤ 0.06 mg/L	2 mg/L (≈ 1.14 µM)	≤ 0.06 mg/L	≤ 0.06 mg/L		1 mg/L (≈ 0.572 µM)		32 mg/L (≈ 18.3 µM)	4 mg/L (≈ 2.29 µM)	1 mg/L (≈ 0.572 µM)	0.5 mg/L (≈ 0.286 µM)		0.28 mg/L	≤ 0.06 mg/L	1 mg/L (≈ 0.572 µM)	4 mg/L (≈ 2.29 µM)	≤ 0.06 mg/L		MIC [8]: ≤ 0.06 mg/L
CNC(CC(C)C)C(=O)NC1C(=O)NC(CC(N)=O)C(=O)NC2C(=O)NC3C(=O)NC(C(=O)NC(C(=O)O)c4cc(O)cc(O)c4-c4cc3ccc4O)C(OC3CC(C)(N)C(O)C(C)O3)c3ccc(c(Cl)c3)Oc3cc2cc(c3OC2OC(CO)C(O)C(O)C2OC2CC(C)(NCc3ccc(N(C)c4ccccc4)cc3)C(O)C(C)O2)Oc2ccc(cc2Cl)C1O (stereo not drawn) [Compound 178]	2.8 mg/L	0.5 mg/L (≈ 0.28 µM)	≤ 0.06 mg/L	1 mg/L (≈ 0.559 µM)	≤ 0.06 mg/L	0.5 mg/L (≈ 0.28 µM)	≤ 0.06 mg/L	0.5 mg/L (≈ 0.28 µM)	≤ 0.06 mg/L	4 mg/L (≈ 2.24 µM)	2 mg/L (≈ 1.12 µM)	1 mg/L (≈ 0.559 µM)	0.25 mg/L (≈ 0.14 µM)	0.25 mg/L (≈ 0.14 µM)	0.13 mg/L	1 mg/L (≈ 0.559 µM)	1 mg/L (≈ 0.559 µM)	2 mg/L (≈ 1.12 µM)	≤ 0.06 mg/L	1 mg/L (≈ 0.559 µM)	
CNC(CC(C)C)C(=O)NC1C(=O)NC(CC(N)=O)C(=O)NC2C(=O)NC3C(=O)NC(C(=O)NC(C(=O)O)c4cc(O)cc(O)c4-c4cc3ccc4O)C(OC3CC(C)(N)C(O)C(C)O3)c3ccc(c(Cl)c3)Oc3cc2cc(c3OC2OC(CO)C(O)C(O)C2OC2CC(C)(NCCCCCCCCOc3ccc(OC)cc3)C(O)C(C)O2)Oc2ccc(cc2Cl)C1O (stereo not drawn) [Compound 200]	1.4 mg/L	0.5 mg/L (≈ 0.274 µM)	≤ 0.06 mg/L	1 mg/L (≈ 0.547 µM)	≤ 0.06 mg/L	0.5 mg/L (≈ 0.274 µM)	≤ 0.06 mg/L	0.5 mg/L (≈ 0.274 µM)	≤ 0.06 mg/L	32 mg/L (≈ 17.5 µM)	2 mg/L (≈ 1.09 µM)	1 mg/L (≈ 0.547 µM)			0.041 mg/L	1 mg/L (≈ 0.547 µM)	1 mg/L (≈ 0.547 µM)	2 mg/L (≈ 1.09 µM)	≤ 0.06 mg/L	0.5 mg/L (≈ 0.274 µM)	MIC [6]: 1 mg/L (≈ 0.547 µM)
CNC(CC(C)C)C(=O)NC1C(=O)NC(CC(N)=O)C(=O)NC2C(=O)NC3C(=O)NC(C(=O)NC(C(=O)O)c4cc(O)cc(O)c4-c4cc3ccc4O)C(OC3CC(C)(N)C(O)C(C)O3)c3ccc(c(Cl)c3)Oc3cc2cc(c3OC2OC(CO)C(O)C(O)C2OC2CC(C)(NCc3ccc(-c4ccccc4C)cc3)C(O)C(C)O2)Oc2ccc(cc2Cl)C1O (stereo not drawn) [Compound 209]	1.2 mg/L	0.5 mg/L (≈ 0.282 µM)	≤ 0.06 mg/L	1 mg/L (≈ 0.564 µM)	≤ 0.06 mg/L		≤ 0.06 mg/L	1 mg/L (≈ 0.564 µM)	≤ 0.06 mg/L	16 mg/L (≈ 9.03 µM)	1 mg/L (≈ 0.564 µM)	0.5 mg/L (≈ 0.282 µM)	≤ 0.06 mg/L	0.15 mg/L (≈ 0.0846 µM)	0.136 mg/L	0.5 mg/L (≈ 0.282 µM)		1 mg/L (≈ 0.564 µM)	≤ 0.06 mg/L	1 mg/L (≈ 0.564 µM)	MIC [6]: 1 mg/L (≈ 0.564 µM); MIC [8]: 1 mg/L (≈ 0.564 µM)
CNC(CC(C)C)C(=O)NC1C(=O)NC(CC(N)=O)C(=O)NC2C(=O)NC3C(=O)NC(C(=O)NC(C(=O)O)c4cc(O)cc(O)c4-c4cc3ccc4O)C(OC3CC(C)(N)C(O)C(C)O3)c3ccc(c(Cl)c3)Oc3cc2cc(c3OC2OC(CO)C(O)C(O)C2OC2CC(C)(NCc3ccc(-c4ccc(C)c(C)c4)cc3)C(O)C(C)O2)Oc2ccc(cc2Cl)C1O (stereo not drawn) [Compound 221]	0.71 mg/L	0.5 mg/L (≈ 0.28 µM)	≤ 0.06 mg/L	1 mg/L (≈ 0.56 µM)	≤ 0.06 mg/L		≤ 0.06 mg/L	0.5 mg/L (≈ 0.28 µM)	≤ 0.06 mg/L	32 mg/L (≈ 17.9 µM)	2 mg/L (≈ 1.12 µM)	1 mg/L (≈ 0.56 µM)	≤ 0.06 mg/L		0.041 mg/L	1 mg/L (≈ 0.56 µM)	1 mg/L (≈ 0.56 µM)	2 mg/L (≈ 1.12 µM)	≤ 0.06 mg/L	0.5 mg/L (≈ 0.28 µM)	MIC [6]: 0.5 mg/L (≈ 0.28 µM)
CNC(CC(C)C)C(=O)NC1C(=O)NC(CC(N)=O)C(=O)NC2C(=O)NC3C(=O)NC(C(=O)NC(C(=O)O)c4cc(O)cc(O)c4-c4cc3ccc4O)C(OC3CC(C)(N)C(O)C(C)O3)c3ccc(c(Cl)c3)Oc3cc2cc(c3OC2OC(CO)C(O)C(O)C2OC2CC(C)(NCc3ccc(-c4ccc(C)cc4)cc3C)C(O)C(C)O2)Oc2ccc(cc2Cl)C1O (stereo not drawn) [Compound 222]	0.84 mg/L	≤ 0.06 mg/L			≤ 0.06 mg/L	≤ 0.06 mg/L	≤ 0.06 mg/L	0.5 mg/L (≈ 0.28 µM)	≤ 0.06 mg/L	32 mg/L (≈ 17.9 µM)	1 mg/L (≈ 0.56 µM)	1 mg/L (≈ 0.56 µM)	≤ 0.06 mg/L	0.5 mg/L (≈ 0.28 µM)	0.072 mg/L		1 mg/L (≈ 0.56 µM)	1 mg/L (≈ 0.56 µM)	≤ 0.06 mg/L	≤ 0.06 mg/L	
C=CCCCOc1ccc(CNC2(C)CC(OC3C(Oc4c5cc6cc4Oc4ccc(cc4Cl)C(OC4CC(C)(N)C(O)C(C)O4)C4NC(=O)C(NC(=O)C6NC(=O)C(CC(N)=O)NC(=O)C(NC(=O)C(CC(C)C)NC)C(O)c6ccc(c(Cl)c6)O5)c5ccc(O)c(c5)-c5c(O)cc(O)cc5C(C(=O)O)NC4=O)OC(CO)C(O)C3O)OC(C)C2O)cc1 (stereo not drawn) [Compound 226]	1.6 mg/L	0.5 mg/L (≈ 0.283 µM)		1 mg/L (≈ 0.566 µM)	≤ 0.06 mg/L		≤ 0.06 mg/L	0.5 mg/L (≈ 0.283 µM)	≤ 0.06 mg/L	32 mg/L (≈ 18.1 µM)	1 mg/L (≈ 0.566 µM)	2 mg/L (≈ 1.13 µM)	≤ 0.06 mg/L	1 mg/L (≈ 0.566 µM)	0.041 mg/L	1 mg/L (≈ 0.566 µM)	1 mg/L (≈ 0.566 µM)	1 mg/L (≈ 0.566 µM)	≤ 0.06 mg/L		MIC [8]: 0.5 mg/L (≈ 0.283 µM)
